Measured values taken from patent EP0700399B1, “36-DERIVATIVES OF RIFAMYCINS AND THEIR USE AS ANTIMICROBIAL AGENTS” (GRUPPO LEPETIT S.P.A., priority 1993, dated 1994).
Like-named read-outs stand apart in the source and are kept apart here.

Assays:
Streptococcus pyogenes = experiment: MIC by broth microdilution; format: cell-based; conditions: Streptococcus pyogenes; internal code L49; read-out: MIC of the compounds
[1] = tested on: Bacteroides fragilis ATCC 25285; experiment: MIC by broth microdilution; format: cell-based; conditions: Bacteroides fragilis, ATCC25285; internal code L1011; anaerobic, 48 hours; read-out: MIC of the compounds
[2] = tested on: Staph. epidermidis ATCC 12228; experiment: MIC by broth microdilution; format: cell-based; conditions: Staphylococcus epidermidis, ATCC12228; internal code L147; read-out: MIC of the compounds
[3] = tested on: Staph. haemolyticus rifa-r^(2); experiment: MIC by broth microdilution; format: cell-based; conditions: Staphylococcus haemolyticus, read-out: MIC of the compounds
Klebsiella pneumoniae = experiment: MIC by broth microdilution; format: cell-based; conditions: internal code L142, read-out: MIC of the compounds
[4] = tested on: Proteus vulgaris ATCC 881; experiment: MIC by broth microdilution; format: cell-based; conditions: Proteus vulgaris, ATCC881; internal code L79; read-out: MIC of the compounds
[5] = tested on: Esch. coli K12 hyperpermeable; experiment: MIC by broth microdilution; format: cell-based, Escherichia coli; conditions: Escherichia coli, read-out: MIC of the compounds
Strept. pneumoniae = experiment: MIC by broth microdilution; format: cell-based; conditions: Streptococcus pneumoniae; internal code L44; read-out: MIC of the compounds
[6] = tested on: Moraxella catarr. ATCC 8178; experiment: MIC by broth microdilution; format: cell-based, Moraxella catharralis; conditions: ATCC8178, internal code L76, read-out: MIC of the compounds
Neisseria gonorrhoeae = experiment: MIC by broth microdilution; format: cell-based; conditions: Neisseria gonorrhoeae; internal code L997; 5% carbon dioxide, 48 hours; read-out: MIC of the compounds
Clostridium perfringens = experiment: microbe, parasite or virus in culture; format: cell-based; conditions: read-out: MIC of the compounds
Staph. aureus rifa-r^(1) = experiment: MIC by broth microdilution; format: cell-based; conditions: Staphylococcus aureus, read-out: MIC of the compounds
[7] = tested on: Esch. coli K12 rifa-r^(1); experiment: MIC by broth microdilution; format: cell-based, Escherichia coli; conditions: Escherichia coli, read-out: MIC of the compounds
[8] = tested on: Haemoph. influenzae ATCC 19418; experiment: MIC by broth microdilution; format: cell-based, Haemophilus influenzae; conditions: Haemophilus influenzae, ATCC19418; internal code L970; 5% carbon dioxide, 48 hours; read-out: MIC of the compounds
[9] = tested on: Enterococc. faecalis ATCC 7080; experiment: MIC by broth microdilution; format: cell-based, Enterococcus faecalis; conditions: Enterococcus faecalis, ATCC7080; internal code L149; read-out: MIC of the compounds
Escherichia coli = experiment: MIC by broth microdilution; format: cell-based; conditions: Escherichia coli; internal code L47; read-out: MIC of the compounds
[10] = tested on: Pseudomonas aerug. ATCC10145; experiment: MIC by broth microdilution; format: cell-based, Pseudomonas aeruginosa; conditions: Pseudomonas, ATCC10145; internal code L4; read-out: MIC of the compounds
Staph. aureus rifa-r^(2) = experiment: MIC by broth microdilution; format: cell-based; conditions: Staphylococcus aureus, read-out: MIC of the compounds
[11] = tested on: Propionibact. acnes ATCC 6919; experiment: MIC by broth microdilution; format: cell-based, Propionibacterium acnes; conditions: Cutibacterium acnes, ATCC6919; internal code L1014; anaerobic, 48 hours; read-out: MIC of the compounds
Staphylococcus aureus = experiment: MIC by broth microdilution; format: cell-based; conditions: Staphylococcus aureus; internal code L165; read-out: MIC of the compounds
Esch. coli K12 wild type = experiment: MIC by broth microdilution; format: cell-based; conditions: Escherichia coli, K12WILDTYPE, internal code G210, read-out: MIC of the compounds
[12] = tested on: Bacteroides fragilis ATCC 23745; experiment: MIC by broth microdilution; format: cell-based; conditions: Bacteroides fragilis, ATCC23745; internal code L1010; anaerobic, 48 hours; read-out: MIC of the compounds

Row | SMILES | MIC (Streptococcus pyogenes) [µg/mL] | MIC [1] [µg/mL] | MIC [2] [µg/mL] | MIC [3] [µg/mL] | MIC (Klebsiella pneumoniae) [µg/mL] | MIC [4] [µg/mL] | MIC [5] [µg/mL] | MIC (Strept. pneumoniae) [µg/mL] | MIC [6] [µg/mL] | MIC (Neisseria gonorrhoeae) [µg/mL] | MIC [7] [µg/mL] | MIC [8] [µg/mL] | MIC [9] [µg/mL] | MIC (Escherichia coli) [µg/mL] | MIC [10] [µg/mL] | MIC (Staph. aureus rifa-r^(2)) [µg/mL] | MIC [11] [µg/mL] | MIC (Staphylococcus aureus) [µg/mL] | MIC (Esch. coli K12 wild type) [µg/mL] | MIC [12] [µg/mL] | further results
1 | CO[C@H]1/C=C/O[C@@]2(C)Oc3c(C)c(O)c4c(c3C2=O)C(=O)C(N2CCOCC2)=C(NC(=O)/C(C)=C\C=C\[C@H](C)[C@H](O)[C@@H](C)[C@@H](O)[C@@H](C)[C@H](OC(=O)CO)[C@@H]1C)C4=O [Compound C15, 36-Hydroxy-3-(4-morpholinyl)rifamycin S] | 0.03 | 0.03 | 0.001 | 4 | 8 | 8 | ≤ 0.13 | 0.016 | 0.002 | 0.03 | > 128 | 0.06 | 0.5 | 8 | 16 | 4 | 0.016 | 0.002 | – | – | MIC (Clostridium perfringens): 0.001 µg/mL; MIC (Staph. aureus rifa-r^(1)): 2 µg/mL
2 | CCN(CC)CC(=O)O[C@H]1[C@H](C)[C@H](O)[C@H](C)[C@@H](O)[C@@H](C)/C=C/C=C(/C)C(=O)NC2=CC(=O)c3c(c(O)c(C)c4c3C(=O)[C@@](C)(O/C=C/[C@H](OC)[C@H]1C)O4)C2=O [Compound C12, 36-Diethylaminorifamycin S] | 0.06 | – | 0.008 | 64 | – | 8 | ≤ 0.13 | 0.03 | – | 1 | > 128 | 1 | 0.25 | 32 | 32 | 32 | 0.5 | 0.03 | 64 | 2 | –
3 | CO[C@H]1/C=C/O[C@@]2(C)Oc3c(C)c(O)c4c(c3C2=O)C(=O)C=C(NC(=O)/C(C)=C\C=C\[C@H](C)[C@H](O)[C@@H](C)[C@@H](O)[C@@H](C)[C@H](OC(=O)CF)[C@@H]1C)C4=O [Compound C2, 36-Fluororifamycin S] | 0.008 | – | 0.015 | – | – | 32 | – | 0.015 | – | 2 | – | 2 | 1 | 128 | 64 | – | 0.13 | 0.015 | ≥ 128 | 2 | MIC ([3]; internal code L602, rifampicin resistant strain, highly resistant): ≥ 128 µg/mL; MIC ([5]; internal code G1640, hyperpermeable): 1 µg/mL; MIC ([7]; internal code G1064, rifampicin resistant strain, moderately resistant): > 128 µg/mL; MIC (Staph. aureus rifa-r^(2); internal code L1282, rifampicin resistant strain, highly resistant): 64 µg/mL
4 | CO[C@H]1/C=C/O[C@@]2(C)Oc3c(C)c(O)c4c(c3C2=O)C(=O)C(N2CCOCC2)=C(NC(=O)/C(C)=C\C=C\[C@H](C)[C@H](O)[C@@H](C)[C@@H](O)[C@@H](C)[C@H](OC(=O)CBr)[C@@H]1C)C4=O [Compound C8, 36-Bromo-3-(4-morpholinyl)rifamycin S] | 0.06 | 0.03 | 0.001 | 16 | 16 | 8 | ≤ 0.13 | 0.03 | 0.002 | 0.03 | > 128 | 0.13 | 0.5 | 8 | 16 | 0.5 | 0.004 | 0.002 | – | – | MIC (Clostridium perfringens): 0.001 µg/mL; MIC (Staph. aureus rifa-r^(1)): 0.5 µg/mL
5 | CO[C@H]1/C=C/O[C@@]2(C)Oc3c(C)c(O)c4c(c3C2=O)C(=O)C=C(NC(=O)/C(C)=C\C=C\[C@H](C)[C@H](O)[C@@H](C)[C@@H](O)[C@@H](C)[C@H](OC(=O)CCl)[C@@H]1C)C4=O [Compound C3, 36-Chlororifamycin S] | 0.016 | 0.13 | 0.008 | 64 | 64 | 8 | 0.25 | 0.03 | 0.008 | 0.13 | > 128 | 1 | 0.25 | 32 | 32 | 16 | 0.03 | 0.004 | – | – | MIC (Clostridium perfringens): 0.0003 µg/mL; MIC (Staph. aureus rifa-r^(1)): 1 µg/mL
6 | CO[C@H]1/C=C/O[C@@]2(C)Oc3c(C)c(O)c4c(c3C2=O)C(=O)C=C(NC(=O)/C(C)=C\C=C\[C@H](C)[C@H](O)[C@@H](C)[C@@H](O)[C@@H](C)[C@H](OC(=O)CSC)[C@@H]1C)C4=O [Compound C4, 36-Methylthiorifamycin S] | 0.008 | – | 0.001 | 128 | – | 8 | 0.51 | 0.002 | – | 0.5 | > 128 | 1 | 0.5 | 64 | 32 | 32 | 0.06 | 0.008 | 64 | 0.5 | –
7 | CO[C@H]1/C=C/O[C@@]2(C)Oc3c(C)c(O)c4c(c3C2=O)C(=O)C=C(NC(=O)/C(C)=C\C=C\[C@H](C)[C@H](O)[C@@H](C)[C@@H](O)[C@@H](C)[C@H](OC(=O)CI)[C@@H]1C)C4=O [Compound C10, 36-Iodorifamycin S] | 0.015 | – | 0.06 | 64 | – | 32 | 1 | 0.03 | – | 16 | ≥ 128 | 4 | 2 | 64 | 32 | 32 | 0.13 | 0.06 | 128 | 0.5 | –
